Results as given in paper PMC9034499, “RORγt agonist enhances anti-PD-1 therapy by promoting monocyte-derived dendritic cells through CXCL10 in cancers” (Journal of Experimental & Clinical Cancer Research : CR, 2022).

How the values were obtained:
[1] = tested on: mutated RORγt protein at key binding sites; assay: Biacore binding to mutated RORγt LBD protein; set-up: species or system human
From the text: Human nuclear receptor RORγt (residues 263–509)-GGG-SRC1 (SRC1 sequence: EKHKILHRLLQDS, Sangon Biotech, Shanghai). RORγt LBD was cloned in pET28a. Key residue mutations of RORγt LBD (such as PHE388, LEU391, CYS393, LEU396, ILE397, ILE400, CYS320, ALA321, LEU324, MET358, and PHE388) with LYC-55716 were cloned in pET28a. Key residue mutations of RORγt LBD (MET365, ALA368, PHE401, ILE400, ILE397, LEU396, TRP317, CYS320, LEU324, ALA327, TYR330, VAL331, MET358, and VAL361) with 8-074 were cloned in pET28a. The proteins were expressed in E. coli strain DE3. Then, the transformed E. coli culture was grown at 37 °C with 30 μg/mL Kanamycin LB (Luria–Bertani). When the OD600 of LB medium reached 0.6, the temperature was changed to 16 °C, and isopropyl-β-D-thiogalactopyranoside (IPTG, Beyotime, Shanghai, China) was added at a final concentration of 0.4 mM to induce protein expression for 16 h. After 16 h, the pellet was collected after centrifugation at 4,000 rpm for 15 min at 4 °C. […]
The RORγt protein was immobilized on a CM5 chip (GE Health, Chicago, USA) using Biaocre 8 K. A sensogram was obtained using different serial concentrations of 8-074 (5000 nM, 2500 nM, 1250 nM, 625 nM, 312.5 nM, 156.25 nM, 78.125 nM, and 39.0625 nM). […] Data were analyzed using Biacore Evaluation Software.

RORγt = target: T1, RORγt (Homo sapiens, UniProt P51449); assay: RORγt dual FRET assay; assay type: biochemical
T1 sequence (P51449 263-518 limits assumed): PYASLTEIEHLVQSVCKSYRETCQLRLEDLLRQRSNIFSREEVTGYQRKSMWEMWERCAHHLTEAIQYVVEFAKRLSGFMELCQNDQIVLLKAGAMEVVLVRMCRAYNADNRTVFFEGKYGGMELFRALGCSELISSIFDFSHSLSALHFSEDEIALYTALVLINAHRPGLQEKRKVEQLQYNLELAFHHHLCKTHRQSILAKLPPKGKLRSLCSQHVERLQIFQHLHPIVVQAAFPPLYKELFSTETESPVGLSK
T1 sequence (Q15788 676-700 partner limits assumed): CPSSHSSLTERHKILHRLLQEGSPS
Procedure: The assay was performed according to a previous study. The plates were incubated for 1 h at room temperature and then read on Envision in LANCE mode configured for the europeum-APC labels.

EL4 cells = assay: Direct toxicity on tumor cells (apoptosis, CCK-8); assay type: cell-based; conditions: even at higher concentrations of 8-074
Procedure: To exclude the direct cytotoxic killing effect of 8-074 on tumor cells, we conducted an apoptosis assay, a cell proliferation assay, and a cytotoxic toxicity assay on tumor cells upon 8-074 treatment.
Supplementary file 13046_2022_2289_MOESM2_ESM.pdf: Additional file 2: Fig. S2. Selectivity of RORγt agonists in vitro. (a) The activity of 8-074 in Gal4 reporter gene assays with RORα and RORβ. (RORα EC50 > 10 μM, RORβ EC50 > 10 μM). (b) Summary of bioactivity and selectivity profiles for 8-074 using multiple assays. (c) 8-074 treated Type 17 T cells secreted more Th17 signature cytokines. IL-17F and IL-22 levels secreted by Type 17 T cells during differentiation were assayed by ELISA (*P < 0.05, **P < 0.01). (d) CCK-8 assay was used to determine the cell viability of EL4 cells after treating them with different 8-074 concentrations. Representative data are shown from three independent experiments. […] Lymphoma EL4 cells were treated with various concentrations of 8-074 for 48 hours and analyzed by flow cytometry after Annexin V-FITC/PI staining. […] (h) The relative mRNA expression of Cd19 in B cells as determined by qPCR. […] (i) Relative mRNA expression of Il-1β levels in macrophages as determined by qPCR. ***P < 0.001. (j) Relative mRNA expression of Il-6 in macrophages as determined by qPCR. *P < 0.05. (k) Relative mRNA expression of Il-10 in macrophages as determined by qPCR. *P < 0.05. […]

B cells = assay: B cell activation markers by qPCR; assay type: cell-based; conditions: compared with the vehicle
Procedure: The intracellular cytokines by TILs or in vitro differentiated T helper cells were quantified after restimulation with PMA plus ionomycin in the presence of GolgiStop for 6 h. The total RNA was isolated using the improved TRizol-based (Sigma, Darmstadt, Germany) method for qPCR analysis, and the mRNA expression was analyzed using a StepOnePlus (Life Technologies, Carlsbad, USA) real-time PCR instrument using housekeeping gene β-actin and Gapdh internal standards. qPCR was performed using A Power SYBR Green PCR Master Mix (Accurate Biology, Hunan, China) and two-cycle amplification for 40 cycles followed by the melting curve. The sequence of primers is listed in the Additional file 6: Table S1. In addition, the cytokines were quantified in cell-free culture supernatants using enzymelinked immunosorbent assay (ELISA) kit (the optical density (OD) value was measured at 450 nm, using 570 nm or 630 nm as the reference wavelengths, Multisciences, Hangzhou, China). The kit was used according to the manufacturer’s instructions.
To confirm the in vitro specificity of 8-074, splenocytes from C57BL/6 wild-type mice were activated by plate-bound anti-CD3 and anti-CD28 antibodies and polarized with anti-IL-4 and IL-12 to obtain Th1 cells. IFN-γ, a signature cytokine of Th1 cells, was not affected by LYC-55716 or 8-074 compared with vehicle alone (Fig. 2j, Fig. S2g).

## CCS(=O)(=O)c1ccc(CC(=O)Nc2ccc(-c3ccc(CC(C)C)c(C#N)c3)c(C(F)(F)F)c2)cc1 [8-074]
[1]
  binding affinity with the mutated RORγt protein: no binding affinity
RORγt
  EC50: 19.9 nM
RORγt; maximal activation
  RORγt dual FRET %max: 199%
EL4 cells
  apoptosis in the tumor EL4 cells: not observed
  cytotoxicity on tumor cells: not observed
B cells
  gene expression of activated B cell markers Cd19 and Cd86: no significant change
